Assays:
DC [1] = experiment: DC maturation marker expression by FACS; type: cell-based, mouse; settings: 100 μM, 6 hours
Procedure: DC were isolated and kept for 6 hours at 4 degrees (ctrlDC 4C) or culture to produce ctrlDC (37C), lpsDC itDC and it/lpsDC. Simultaneously cells were treated with the purinergic receptor agonists ATP (1 mM) and Bz-ATP (100 μM), purinergic receptors antagonists oxidized ATP (oATP, 100 μM) and suranim (100 μM), the adenosine monophosphate kinase (AMPK) stimulator AICAR (100 μM) and the enzyme Apyrase (200 U/ml) that catalyses ATP. Cells were harvested after 6 hours and the expression of the indicated markers was assessed by FACS.

DC [2] = experiment: Oxygen consumption rate (OCR) of DC; type: cell-based, mouse; settings: 2 h activation; oATP with or without LPS co-treatment
Procedure: Mitochondria oxygen consumption rate (OCR) was measured by using a YSI 5300 Clark-type electrode (Yellow Springs Instrument, Yellow Springs, Ohio, USA) or the XF24 Extracellular Flux Analyzer (Seahorse Bioscience, Billerica, Mass.) following the manufacturer's protocol. Primary cultured DC (10^6 cells/well) were used as described in the experiments.
The effect of the activation of DC on the O2 consumption rate (OCR) was tested to attempt to correlate increased OCR with increased immunogenicity.
(§1) The effect of direct inhibition of mitochondrial respiration, by an inhibitor of mitochondrial respiratory complex I, rotenone, was tested. […] Control DC were treated with LPS without OVA pulsing. T cell proliferation was analyzed by CFSE dilution on D3.

DC [3] = tested on: DC
DC [4] = experiment: DC immunogenicity: OT-II T cell proliferation by CFSE dilution; type: cell-based, mouse; settings: LPS plus 1 mM rotenone; CFSE dilution on D3
Procedure: as §1

DC [5] = experiment: Ex vivo Treg differentiation: Foxp3 induction in Tn by treated DC; type: cell-based, mouse

NC(=O)c1ncn([C@@H]2O[C@H](CO)[C@@H](O)[C@H]2O)c1N [AICAR, 5-aminoimidazole-4-carboxamide-1-β-4-ribofuranoside]
DC maturation (expression of markers) (DC [1]): block DC maturation

Nc1ncnc2c1ncn2[C@@H]1O[C@H](COP(=O)(O)OP(=O)(O)OP(=O)(O)O)[C@@H](O)[C@H]1O [ATP, adenosine triphosphate]
OCR of DC (DC [2]): enhanced OCR levels in DCs

C=C(C)[C@H]1Cc2c(ccc3c2O[C@@H]2COc4cc(OC)c(OC)cc4[C@@H]2C3=O)O1 [rotenone]
toxicity to DC (maturation markers CD80, C86, MHC-II and migration to CCL21) (DC [3]): not toxic to DC | T cell proliferation induced by antigen pulsed, LPS matured DC (DC [4]): induced much less T cell proliferation

Periodate-oxidized ATP [oATP]
capacity to imprint DC with tolerogenic potential (percentages of Foxp3 and CD25 expressing cells) (DC [5]; DC incubated 2 hours, oATP 100 μM, 5 days in coculture): significantly imprints DC with tolerogenic potential | tolerogenic capacity compared with the combination of rapamycin and TGFβ (DC [5]; oATP 100 μM vs rapamycin 10 nM and TGFβ 2 ng/ml): matches or exceeds | OCR of DC (DC [2]): reduced OCR | DC maturation (expression of markers) (DC [1]): block DC maturation

— patent US20130195919A1, “INDUCED DENDRITIC CELL COMPOSITIONS AND USES THEREOF” (PRESIDENT AND FELLOWS OF HARVARD COLLEGE, priority 2010, published 2013)
